From patent publication US12129246B1, “Hydroquinazoline derivatives for the treatment of a disease or disorder” (Novartis AG, priority 2023, dated 2024)
Like-named read-outs stand apart in the source and are kept apart here.

Experiments:
[1] = target: T1, human NPR1 (Homo sapiens, UniProt P16066); assay: Cellular cGMP production assay, human NPR1 expressing CHO-K1 cells (CisBio HTRF); format: cell-based; details: for AC50: cGMP production, 30 min at 37° C., 12-point dose-response from 30 μM; for Human NPR1 Amax (% of ANP): maximum cGMP production as percentage of the maximum cGMP produced with ANP
T1 construct: host or cells: CHO-K1
T1 sequence (P16066 33-1061): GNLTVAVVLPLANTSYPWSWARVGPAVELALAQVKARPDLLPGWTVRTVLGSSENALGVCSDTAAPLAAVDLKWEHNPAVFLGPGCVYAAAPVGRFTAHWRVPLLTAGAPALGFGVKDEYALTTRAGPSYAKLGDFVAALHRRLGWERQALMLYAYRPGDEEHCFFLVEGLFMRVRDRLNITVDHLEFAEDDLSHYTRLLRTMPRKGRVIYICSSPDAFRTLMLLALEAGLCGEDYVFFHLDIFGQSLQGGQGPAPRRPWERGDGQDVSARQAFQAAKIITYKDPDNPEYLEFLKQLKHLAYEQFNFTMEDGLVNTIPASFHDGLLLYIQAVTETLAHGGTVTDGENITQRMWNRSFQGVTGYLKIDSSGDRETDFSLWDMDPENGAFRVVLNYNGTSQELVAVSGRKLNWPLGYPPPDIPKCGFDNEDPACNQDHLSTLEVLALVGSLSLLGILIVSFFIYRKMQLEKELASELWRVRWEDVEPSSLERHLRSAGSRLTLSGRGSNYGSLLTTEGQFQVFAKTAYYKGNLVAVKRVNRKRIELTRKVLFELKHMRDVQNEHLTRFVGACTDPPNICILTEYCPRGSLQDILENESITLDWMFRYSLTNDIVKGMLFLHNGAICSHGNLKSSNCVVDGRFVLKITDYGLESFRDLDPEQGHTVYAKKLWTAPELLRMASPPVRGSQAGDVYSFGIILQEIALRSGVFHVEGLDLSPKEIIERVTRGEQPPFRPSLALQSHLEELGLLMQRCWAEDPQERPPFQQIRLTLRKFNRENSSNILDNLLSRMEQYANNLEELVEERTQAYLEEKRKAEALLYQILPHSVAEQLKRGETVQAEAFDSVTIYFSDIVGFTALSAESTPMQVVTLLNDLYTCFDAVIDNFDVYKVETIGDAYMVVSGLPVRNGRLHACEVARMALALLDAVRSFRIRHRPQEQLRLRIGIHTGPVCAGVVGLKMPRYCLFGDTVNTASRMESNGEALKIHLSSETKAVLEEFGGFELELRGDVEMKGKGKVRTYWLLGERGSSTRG
Method: (§1) Cellular cGMP is a major second messenger that mediates cell activities and is synthesized by activated NPR1 triggered by binding of the natural ligand ANP. […] The assay was performed according to manufacturer's instructions with minor deviations. […] All compound stocks were diluted in PBS+0.1% BSA at 2-fold the final assay concentration. After addition of 10 μL/well of assay buffer (PBS+0.1% BSA+1 mM IBMX) and 10 μL/well of the compounds in different concentrations (12-point dose-response with 3-fold dilutions from a top concentration of 30 μM), the plate was incubated for 30 min at 37° C. to allow for cGMP production. In parallel, a standard curve using a calibrator (contained in the kit) was generated. The cells were lysed and a mix of cGMP-d2 and anti-cGMP-cryptate was added and incubated for 1 h at room temperature. The readout was performed using an Envision plate reader (PerkinElmer) with an excitation wavelength of 317 nm and an emission wavelength of 665 nm. cGMP concentration (Delta F [° %]) was calculated according to the following formulae: […]

[2] = target: monkey NPR1 (Macaca fascicularis, UniProt A0A7N9DBT9); assay: Cellular cGMP production assay, monkey NPR1 expressing CHO-K1 cells (CisBio HTRF); format: cell-based; details: for Monkey NPR1 Amax (% of ANP): maximum cGMP production as percentage of the maximum cGMP produced with ANP
Method: as §1

[3] = cGMP production, monkey NPR1 CHO-K1 cells, 30 min at 37° C., 12-point dose-response from 30 μM, read-out: Monkey NPR1 AC50

monkey NPR1, sequence (A0A7N9DBT9 entry or part of it): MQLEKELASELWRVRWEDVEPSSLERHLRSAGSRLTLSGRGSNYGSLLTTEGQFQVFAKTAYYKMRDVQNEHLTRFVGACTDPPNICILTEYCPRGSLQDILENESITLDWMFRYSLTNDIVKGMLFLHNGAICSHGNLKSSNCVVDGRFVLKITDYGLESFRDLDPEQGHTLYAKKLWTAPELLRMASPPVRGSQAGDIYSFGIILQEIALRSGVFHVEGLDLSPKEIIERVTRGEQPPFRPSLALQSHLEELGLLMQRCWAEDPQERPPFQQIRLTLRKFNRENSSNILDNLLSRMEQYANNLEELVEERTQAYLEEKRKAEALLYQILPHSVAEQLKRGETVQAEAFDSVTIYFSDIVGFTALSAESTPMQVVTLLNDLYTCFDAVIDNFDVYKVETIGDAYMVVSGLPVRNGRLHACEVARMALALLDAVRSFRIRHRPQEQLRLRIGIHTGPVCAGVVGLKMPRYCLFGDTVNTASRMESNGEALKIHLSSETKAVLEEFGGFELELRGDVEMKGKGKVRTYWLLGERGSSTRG

Row | SMILES | AC50 [1] [nM] | Human NPR1 Amax (% of ANP) [1] | AC50 [2] [nM] | Monkey NPR1 Amax (% of ANP) ([2]; monkey NPR1 CHO-K1 cells) | AC50 [2, 3] [nM]
1 | CC[C@@H](Nc1nc2c(c(N[C@@H](CN3C4CCCC3CC(O)C4)c3cnn(CC)c3)n1)C[C@H](c1cccc(F)c1)CC2)[C@H]1CC[C@H](C(=O)O)CC1 (stereo partly drawn) [Compound 117, (1R,4r)-4-((1R)-1-(((6R)-4-(((1R)-1-(1-ethyl-1H-pyrazol-4-yl)-2-((1R,5S)-3-hydroxy-9-azabicyclo[3.3.1]nonan-9-yl)ethyl)amino)-6-(3-fluorophenyl)-5,6,7,8-tetrahydroquinazolin-2-yl)amino)propyl)cyclohexane-1-carboxylic acid] | 524 | 100.635 % of ANP | 500 | 109.499 % of ANP | –
2 | CC[C@@H](Nc1nc2c(c(N[C@@H](CN3C4CCCC3CCC4)c3cnn(CC)c3)n1)C[C@@H](c1cccc(F)c1)CC2)[C@H]1CC[C@H](C(=O)O)CC1 [Compound 10, (1R,4r)-4-((R)-1-(((S)-4-(((R)-2-((1S,5S)-9-azabicyclo[3.3.1]nonan-9-yl)-1-(1-ethyl-1H-pyrazol-4-yl)ethyl)amino)-6-(3-fluorophenyl)-5,6,7,8-tetrahydroquinazolin-2-yl)amino)propyl)cyclohexane-1-carboxylic acid] | 91 | 96.065 % of ANP | 73 | 97.058 % of ANP | –
3 | CC[C@@H](N(C)c1nc2c(c(N[C@@H](CN3C4CCCC3CC4)c3cnn(C)c3)n1)C[C@](C)(c1ccccc1)CC2)C12CC(C(=O)O)(C1)C2 [Compound 28, 3-((1R)-1-(((6R)-4-(((1R)-2-(8-azabicyclo[3.2.1]octan-8-yl)-1-(1-methyl-1H-pyrazol-4-yl)ethyl)amino)-6-methyl-6-phenyl-5,6,7,8-tetrahydroquinazolin-2-yl)(methyl)amino)propyl)bicyclo[1.1.1]pentane-1-carboxylic acid] | 139 | 103.247 % of ANP | 134 | 105.314 % of ANP | –
4 | CC[C@@H]1CCCCN1C[C@H](Nc1nc(N[C@H](CC)[C@H]2CC[C@H](C(=O)O)CC2)nc2c1C[C@H](c1ccccc1)CC2)c1cnn(C)c1 [Compound 96, (1R,4r)-4-((R)-1-(((R)-4-(((R)-2-((R)-2-ethylpiperidin-1-yl)-1-(1-methyl-1H-pyrazol-4-yl)ethyl)amino)-6-phenyl-5,6,7,8-tetrahydroquinazolin-2-yl)amino)propyl)cyclohexane-1-carboxylic acid] | 336 | 103.654 % of ANP | – | 101.912 % of ANP | 106
5 | CC[C@H]([C@H]1CC[C@H](C(=O)O)CC1)N(C)c1nc2c(c(N[C@@H](CN3CCC[C@H](C(F)F)C3)c3cnn(C)c3)n1)C[C@H](c1cccc(F)c1)CC2 [Compound 54, (1R,4r)-4-((R)-1-(((R)-4-(((R)-2-((S)-3-(difluoromethyl)piperidin-1-yl)-1-(1-methyl-1H-pyrazol-4-yl)ethyl)amino)-6-(3-fluorophenyl)-5,6,7,8-tetrahydroquinazolin-2-yl)(methyl)amino)propyl)cyclohexane-1-carboxylic acid] | 194 | 95.979 % of ANP | – | 103.704 % of ANP | 174
6 | CC[C@H]([C@H]1CC[C@H](C(=O)O)CC1)N(C)c1nc2c(c(N[C@@H](CN3CCC4CC4C3)c3cnn(C)c3)n1)C[C@H](c1ccccc1)CC2 (stereo partly drawn) [Compound 78, (1R,4r)-4-((1R)-1-(((6R)-4-(((1R)-2-(3-azabicyclo[4.1.0]heptan-3-yl)-1-(1-methyl-1H-pyrazol-4-yl)ethyl)amino)-6-phenyl-5,6,7,8-tetrahydroquinazolin-2-yl)(methyl)amino)propyl)cyclohexane-1-carboxylic acid] | 254 | 99.406 % of ANP | – | 102.158 % of ANP | 212
7 | CC[C@H]([C@H]1CC[C@H](C(=O)O)CC1)N(C)c1nc2c(c(N[C@@H](CN3CCCCC3)c3cnn(C)c3)n1)C[C@H](c1ccccc1)CC2 [Compound 118, (1R,4r)-4-((R)-1-(methyl((R)-4-(((R)-1-(1-methyl-1H-pyrazol-4-yl)-2-(piperidin-1-yl)ethyl)amino)-6-phenyl-5,6,7,8-tetrahydroquinazolin-2-yl)amino)propyl)cyclohexane-1-carboxylic acid] | 540 | 94.446 % of ANP | – | 99.466 % of ANP | 400
8 | CC[C@@H](N(C)c1nc2c(c(N[C@@H](CN3CCC[C@H](C)C3)c3cnn(C)c3C)n1)C[C@H](c1cccc(F)c1)CC2)C12CC(C(=O)O)(C1)C2 [Compound 46] | 179 | 93.728 % of ANP | – | 101.294 % of ANP | 146
9 | CC[C@H]([C@H]1CC[C@H](C(=O)O)CC1)N(C)c1nc2c(c(N[C@@H](CN3CCC[C@H](COC)C3)c3cnn(C)c3)n1)C[C@H](c1cccc(F)c1)CC2 [Compound 35, (1R,4r)-4-((R)-1-(((R)-6-(3-fluorophenyl)-4-(((R)-2-((S)-3-(methoxymethyl)piperidin-1-yl)-1-(1-methyl-1H-pyrazol-4-yl)ethyl)amino)-5,6,7,8-tetrahydroquinazolin-2-yl)(methyl)amino)propyl)cyclohexane-1-carboxylic acid] | 148 | 92.607 % of ANP | – | 104.934 % of ANP | 127
10 | CC[C@@H](Nc1nc2c(c(N[C@@H](CN3CCC(F)CC3)c3cnn(C)c3)n1)C[C@H](c1ccccc1)CC2)[C@H]1CC[C@H](C(=O)O)CC1 [Compound 142, (1R,4r)-4-((R)-1-(((R)-4-(((R)-2-(4-fluoropiperidin-1-yl)-1-(1-methyl-1H-pyrazol-4-yl)ethyl)amino)-6-phenyl-5,6,7,8-tetrahydroquinazolin-2-yl)amino)propyl)cyclohexane-1-carboxylic acid] | 901 | 107.815 % of ANP | – | 95.614 % of ANP | 313
11 | CC[C@H]([C@H]1CC[C@H](C(=O)O)CC1)N(C)c1nc2c(c(N[C@@H](CN3CCC[C@H](CF)C3)c3cnn(C)c3)n1)C[C@H](c1cccc(F)c1)CC2 [Compound 19, (1R,4r)-4-((R)-1-(((R)-4-(((R)-2-((S)-3-(fluoromethyl)piperidin-1-yl)-1-(1-methyl-1H-pyrazol-4-yl)ethyl)amino)-6-(3-fluorophenyl)-5,6,7,8-tetrahydroquinazolin-2-yl)(methyl)amino)propyl)cyclohexane-1-carboxylic acid] | 108 | 100.504 % of ANP | – | 98.174 % of ANP | 82
12 | CC[C@@H](N(C)c1nc2c(c(N[C@@H](CN3CCC[C@H](CF)C3)c3cnn(C)c3)n1)C[C@](C)(c1ccccc1)CC2)C12CC(C(=O)O)(C1)C2 [Compound 12, 3-((R)-1-(((R)-4-(((R)-2-((S)-3-(fluoromethyl)piperidin-1-yl)-1-(1-methyl-1H-pyrazol-4-yl)ethyl)amino)-6-methyl-6-phenyl-5,6,7,8-tetrahydroquinazolin-2-yl)(methyl)amino)propyl)bicyclo[1.1.1]pentane-1-carboxylic acid] | 94 | 96.068 % of ANP | – | 95.099 % of ANP | 73
